Results reported in patent US20130039905A1 (Neurotec Pharma, S.L., priority 2010, published 2013).
“Also recorded” adds a separate entry of the source.

Assays:
[1] = Glycemia in mice receiving daily oral diazoxide (Example 1); type: in vivo; settings: 30 days, female C57BL/6J mice, blood glucose at time 0 and 60 minutes
Method: Female C57BL/6J mice, 11 weeks of age, were purchased from Charles River and maintained on a 12:12 hr light:dark cycle, with standard chow and water freely available. The experiments began at 11:00 h. […] From day 4 on, glucose blood levels were measured every 3-4 days during the 30-day treatment period. Measurements were performed immediately before drug administration (time 0) and at 60 minutes. Blood samples were obtained from the saphenous vein and glucose levels were determined using a glucometer and glucose test strips (Accu-Chek® Aviva, Roche Diagnostics, Indianapolis, Ind, USA). For each group, hyperglycemia was considered when glucose concentration was equal or higher than 176 mg/dl.

EAE mice [2] = assay: EAE in mice, treatment starting at immunization (pre-treatment, Example 2); type: in vivo; settings: for global mean decrease of the clinical score (Area Under the Curve vs placebo): pre-treatment
EAE mice [3] = assay: EAE in mice, treatment after first clinical signs (post-treatment, Example 3); type: in vivo; settings: for global mean decrease of the clinical score (Area Under the Curve vs placebo): post-treatment
Method: Experimental Autoimmune Encephalomyelitis induction and clinic scoring of mice were performed as described on Example 2.
The day scoring a value of 1, every mouse was randomly assigned to a diazoxide-treatment or placebo-control group. The period of treatment was 15 days and the drug was dissolved in a vehicle consisting in 98.5% water plus 1.5% of dimetyl sulfoxide (Sigma-Aldrich, St. Louis, Mo., USA) and was administered daily orally by gavage (p.o.), in a dose volume of 200 μl. […] One placebo-control group received a daily oral administration of vehicle.
The non-parametric Mann-Whitney-Wilcoxon test was performed to establish the differences between the treated groups and control group for each day. p<0.05 was considered as significant. To test the global effect of the treatment along all the study, the Area Under the Curve of treated groups and control group was compared using One-Way-Anova test. p<0.05 was considered as significant.

[4] = system: bupivacaine-induced actute CNS toxicity; settings: 100 mg/kg (300 mg/m^2), mice; cited from earlier work

Question: Which “hyperglycemia (glucose concentration equal or higher than 176 mg/dl)” value ([1]; 0.05 mg/kg (0,15 mg/m^2) daily p.o.) does the source give for `CC1=NS(=O)(=O)c2cc(Cl)ccc2N1` [Diazoxide] here?
Answer: none of the two doses tested in this study produced hyperglycemia

Question: And the “hyperglycemia (glucose concentration equal or higher than 176 mg/dl)” value ([1]; 1 mg/kg (3 mg/m^2) daily p.o.)?
Answer: none of the two doses tested in this study produced hyperglycemia

Question: What about the “global mean decrease of the clinical score (Area Under the Curve vs placebo)” value (from here on “global mean decrease”) (EAE mice [2]; 0,8 mg/Kg (2.4 mg/m^2) daily p.o., p<0,01) of the same molecule?
Answer: 26%

Question: And the “daily EAE clinical score compared to control group” value (EAE mice [2]; 0.025 mg/kg (0.075 mg/m^2) daily p.o. for 30 days from immunization)?
Answer: significant difference at days fourteen, fifteen, eighteen and nineteen

Question: And the “daily EAE clinical score compared to placebo control group” value (EAE mice [2]; 0.8 mg/kg (2.4 mg/m^2) daily p.o. for 30 days from immunization)?
Answer: significantly lower at day thirteen and from day twenty-five to thirty; also recorded: significant in seven non-consecutive days

Question: And the “global mean decrease” value (EAE mice [2]; 0,025 mg/Kg (0.075 mg/m^2) daily p.o., p<0.05)?
Answer: 26%

Question: And the “mean value for clinical score compared to control group after day 13 post-immunization” value (EAE mice [2]; all dosages tested (0.025 and 0.8 mg/kg) daily p.o. from immunization)?
Answer: better mean value for clinical score

Question: What about the “daily EAE clinical score compared to control group” value (EAE mice [3]; 0.05 mg/kg (0.15 mg/m^2) daily p.o. for 15 days from score 1) of the same molecule?
Answer: significant difference at the final phase of the study (day 15)

Question: And the “global mean decrease” value (EAE mice [3]; 0.05 mg/kg (0.15 mg/m^2) daily p.o.)?
Answer: 19%

Question: What about the “daily EAE clinical score compared to placebo-control group” value (EAE mice [3]; 0.8 mg/kg (2.4 mg/m^2) daily p.o. for 15 days from score 1, day six to day fifteen) of the same molecule?
Answer: all clinical values were significantly lower; also recorded: significant reduction of the daily clinical score in ten consecutive days

Question: And the “global mean decrease” value (EAE mice [3]; 1 mg/kg (3 mg/m^2) daily p.o., p<0.05)?
Answer: 40%

Question: And the “daily EAE clinical score compared to control group” value (EAE mice [3]; 4 mg/kg (12 mg/m^2) daily p.o. for 15 days from score 1)?
Answer: significant reduction in the clinical score at day four and at day five

Question: What about the “global mean decrease” value (EAE mice [3]; 4 mg/kg (12 mg/m^2) daily p.o.) of the same molecule?
Answer: 15%

Question: What about the “morbidity and mean daily clinical score compared to placebo-control group” value (EAE mice [3]; 0.05, 0.8 and 1 mg/kg daily p.o. for 15 days from score 1) of the same molecule?
Answer: significant reduction of morbidity and of the mean daily clinical score

Question: And the “daily EAE clinical score compared to placebo-control group” value (EAE mice [3]; 1 lmg/kg (3 mg/m^2) daily p.o. for 15 days from score 1, day four to day fifteen)?
Answer: significantly lower from day four

Question: What about the “period of latency of the convulsions caused by bupivacaine” value [4] of the same molecule?
Answer: increasing the period of latency of the convulsions
